Assay results reported in patent US9206219B2, “17-hydroxy-17-pentafluorethyl-estra-4,9(10)-dien-11-aryl derivatives, methods for the production thereof and the use thereof for treating diseases” (Bayer Intellectual Property GmbH, priority 2009, dated 2015).
pIC50: −log10 of the molar value.

Columns and labels:
[1] = target: T1, human progesterone receptor A (Homo sapiens, UniProt P06401); assay: Progesterone receptor-antagonistic action in stably transfected SK-N-MC cells, MMTV-LUC reporter (PR-A); format: cell-based; conditions: antagonistic potency vs 0.1 nmol/l promegestone, 24 hours
T1 construct: expressed in transfected cells; host or cells: SK-N-MC human neuroblastoma cells, stably transfected with pRChPR-A-neo and pMMTV-LUC
T1 sequence (P06401 1-769 isoform P06401-2): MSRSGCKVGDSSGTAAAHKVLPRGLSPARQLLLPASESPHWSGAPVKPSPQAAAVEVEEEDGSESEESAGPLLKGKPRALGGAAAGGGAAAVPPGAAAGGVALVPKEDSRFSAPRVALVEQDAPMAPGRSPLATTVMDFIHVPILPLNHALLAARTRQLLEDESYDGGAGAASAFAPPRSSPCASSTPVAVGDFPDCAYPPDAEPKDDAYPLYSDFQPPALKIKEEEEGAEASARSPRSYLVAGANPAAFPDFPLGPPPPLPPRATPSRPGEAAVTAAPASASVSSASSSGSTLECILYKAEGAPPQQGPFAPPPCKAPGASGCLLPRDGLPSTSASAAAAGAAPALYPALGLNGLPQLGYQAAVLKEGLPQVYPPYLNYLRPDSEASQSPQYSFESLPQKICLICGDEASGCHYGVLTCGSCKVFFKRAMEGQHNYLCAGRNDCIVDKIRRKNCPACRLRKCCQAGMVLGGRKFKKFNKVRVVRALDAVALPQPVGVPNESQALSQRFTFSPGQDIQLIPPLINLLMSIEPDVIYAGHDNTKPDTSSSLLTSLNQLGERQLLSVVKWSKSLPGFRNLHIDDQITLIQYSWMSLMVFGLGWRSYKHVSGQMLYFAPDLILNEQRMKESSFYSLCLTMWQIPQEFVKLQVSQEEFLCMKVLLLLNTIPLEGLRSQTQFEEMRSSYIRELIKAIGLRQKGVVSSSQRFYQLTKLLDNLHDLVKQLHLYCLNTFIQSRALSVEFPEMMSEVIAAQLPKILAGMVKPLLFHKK
Description: (§1) Progesterone Receptor-Antagonistic Action in Stable Transfectants of Human Neuroblastoma Cells (SK-N-MC Cells) with the Human Progesterone A or Progesterone B Receptor and an MN-LUC Reporter Construct
(§2) SK-N-MC cells (human neuroblastoma cells) which have been stably transfected with plasmids expressing the human progesterone receptor B (pRChPR-B-neo) or the human progesterone receptor A (pRChPR-A-neo) and a reporter construct (pMMTV-LUC) were incubated for 24 hours either in the absence (negative control) or in the presence of ascending amounts of the particular test compound (0.01 nmol/l, 0.1 nmol/l, 1 nmol/l, 10 nmol/l, 100 nmol/l and […]), in order to determine the agonistic efficacy. As a positive control of the reporter gene induction, the cells were treated with the synthetic gestagen promegestone (0.01 nmol/l, 0.1 nmol/l, 1 nmol/l, 10 nmol/l, 100 nmol/l and […]). To determine the antagonistic activity, the cells were treated with 0.1 nmol/l promegestone and additionally with ascending amounts of the particular test compound (0.01 nmol/l, 0.1 nmol/l, 1 nmol/l, 10 nmol/l, 100 nmol/l and […]). The activity of the reporter gene LUC (LUC=luciferase) was determined in the cell lysates and measured as RLU (relative light units). All measurements are reported as % efficacy and as EC50 and IC50 concentrations.

[2] = target: T2, human progesterone receptor B (Homo sapiens, UniProt P06401); assay: Progesterone receptor-antagonistic action in stably transfected SK-N-MC cells, MMTV-LUC reporter (PR-B); format: cell-based; conditions: antagonistic potency vs 0.1 nmol/l promegestone, 24 hours
T2 construct: expressed in transfected cells; host or cells: SK-N-MC human neuroblastoma cells, stably transfected with pRChPR-B-neo and pMMTV-LUC
T2 sequence (P06401 1-933): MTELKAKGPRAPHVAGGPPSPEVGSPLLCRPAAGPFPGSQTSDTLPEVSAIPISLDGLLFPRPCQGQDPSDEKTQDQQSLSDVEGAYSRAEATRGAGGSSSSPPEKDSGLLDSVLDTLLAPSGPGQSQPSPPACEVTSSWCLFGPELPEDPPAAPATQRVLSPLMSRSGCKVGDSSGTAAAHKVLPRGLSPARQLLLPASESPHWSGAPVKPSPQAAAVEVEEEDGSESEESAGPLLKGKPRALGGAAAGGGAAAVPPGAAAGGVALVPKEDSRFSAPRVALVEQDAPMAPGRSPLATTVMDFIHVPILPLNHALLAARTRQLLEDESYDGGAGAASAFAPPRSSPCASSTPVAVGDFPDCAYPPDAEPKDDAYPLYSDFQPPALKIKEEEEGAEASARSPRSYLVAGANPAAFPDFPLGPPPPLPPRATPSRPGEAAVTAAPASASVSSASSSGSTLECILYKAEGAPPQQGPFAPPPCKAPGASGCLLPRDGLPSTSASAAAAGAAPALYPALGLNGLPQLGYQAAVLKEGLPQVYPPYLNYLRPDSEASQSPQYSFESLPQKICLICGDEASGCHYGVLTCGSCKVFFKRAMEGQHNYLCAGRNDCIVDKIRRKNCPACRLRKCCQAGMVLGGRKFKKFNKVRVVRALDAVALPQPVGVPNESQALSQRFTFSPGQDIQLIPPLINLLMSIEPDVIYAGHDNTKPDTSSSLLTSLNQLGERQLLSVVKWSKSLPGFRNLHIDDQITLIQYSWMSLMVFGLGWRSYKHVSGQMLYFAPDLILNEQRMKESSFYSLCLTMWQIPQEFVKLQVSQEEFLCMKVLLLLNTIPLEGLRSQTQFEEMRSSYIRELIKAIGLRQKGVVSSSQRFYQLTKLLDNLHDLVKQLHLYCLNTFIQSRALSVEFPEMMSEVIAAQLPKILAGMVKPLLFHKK
Description: as §1, §2

Row | pIC50 [1] | pIC50 [2] | Compound
1 | 10.00 | 10.00 | C=CCNC(=O)OCc1ccc([C@H]2C[C@@]3(C)[C@@H](CC[C@@]3(O)C(F)(F)C(F)(F)F)[C@@H]3CCC4=CC(=O)CCC4=C32)cc1 [Example 43, allylcarbamic acid 4-((8S,11R,13S,14S,17S)-17-hydroxy-13-methyl-3-oxo-17-pentafluoroethyl-2,3,6,7,8,11,12,13,14,15,16,17-dodecahydro-1H-cyclopenta[a]phenanthren-11-yl)benzyl ester]
2 | 10.00 | 10.00 | CC(C)(C)NC(=O)OCc1ccc([C@H]2C[C@@]3(C)[C@@H](CC[C@@]3(O)C(F)(F)C(F)(F)F)[C@@H]3CCC4=CC(=O)CCC4=C32)cc1 [Example 44, tert-butylcarbamic acid 4-((8S,11R,13S,14S,17S)-17-hydroxy-13-methyl-3-oxo-17-pentafluoroethyl-2,3,6,7,8,11,12,13,14,15,16,17-dodecahydro-1H-cyclopenta[a]phenanthren-11-yl)benzyl ester]
3 | 10.70 | 10.05 | C[C@]12C[C@H](c3ccc(COC(=O)Nc4ccc(N5CCCCC5)cc4)cc3)C3=C4CCC(=O)C=C4CC[C@H]3[C@@H]1CC[C@@]2(O)C(F)(F)C(F)(F)F [Example 45, (4-piperidin-1-ylphenyl)carbamic acid 4-((8S,11R,13S,14S,17S)-17-hydroxy-13-methyl-3-oxo-17-pentafluoroethyl-2,3,6,7,8,11,12,13,14,15,16,17-dodecahydro-1H-cyclopenta[a]phenanthren-11-yl)benzyl ester]
4 | 11.00 | 11.00 | C[C@]12C[C@H](c3ccc(COC(=O)Nc4ccccc4)cc3)C3=C4CCC(=O)C=C4CC[C@H]3[C@@H]1CC[C@@]2(O)C(F)(F)C(F)(F)F [Example 46, phenylcarbamic acid 4-((8S,11R,13S,14S,17S)-17-hydroxy-13-methyl-3-oxo-17-pentafluoroethyl-2,3,6,7,8,11,12,13,14,15,16,17-dodecahydro-1H-cyclopenta[a]phenanthren-11-yl)benzyl ester]
5 | 10.15 | 9.70 | Cc1ccc(NC(=O)OCc2ccc([C@H]3C[C@@]4(C)[C@@H](CC[C@@]4(O)C(F)(F)C(F)(F)F)[C@@H]4CCC5=CC(=O)CCC5=C43)cc2)cc1 [Example 48, (4-methylphenyl)carbamic acid 4-((8S,11R,13S,14S,17S)-17-hydroxy-13-methyl-3-oxo-17-pentafluoroethyl-2,3,6,7,8,11,12,13,14,15,16,17-dodecahydro-1H-cyclopenta[a]phenanthren-11-yl)benzyl ester]
6 | 10.05 | 10.00 | C[C@]12C[C@H](c3ccc(COC(=O)Nc4ccc(F)cc4)cc3)C3=C4CCC(=O)C=C4CC[C@H]3[C@@H]1CC[C@@]2(O)C(F)(F)C(F)(F)F [Example 49, (4-fluorophenyl)carbamic acid 4-((8S,11R,13S,14S,17S)-17-hydroxy-13-methyl-3-oxo-17-pentafluoroethyl-2,3,6,7,8,11,12,13,14,15,16,17-dodecahydro-1H-cyclopenta[a]phenanthren-11-yl)benzyl ester]
7 | 10.00 | 9.40 | C[C@]12C[C@H](c3ccc(COC(=O)Nc4ccc(Cl)cc4)cc3)C3=C4CCC(=O)C=C4CC[C@H]3[C@@H]1CC[C@@]2(O)C(F)(F)C(F)(F)F [Example 50, (4-chlorophenyl)carbamic acid 4-((8S,11R,13S,14S,17S)-17-hydroxy-13-methyl-3-oxo-17-pentafluoroethyl-2,3,6,7,8,11,12,13,14,15,16,17-dodecahydro-1H-cyclopenta[a]phenanthren-11-yl)benzyl ester]
8 | 10.00 | 10.00 | CCOC(=O)c1ccc(NC(=O)OCc2ccc([C@H]3C[C@@]4(C)[C@@H](CC[C@@]4(O)C(F)(F)C(F)(F)F)[C@@H]4CCC5=CC(=O)CCC5=C43)cc2)cc1 [Example 52, 4-[4-((8S,11R,13S,14S,17S)-17-hydroxy-13-methyl-3-oxo-17-pentafluoroethyl-2,3,6,7,8,11,12,13,14,15,16,17-dodecahydro-1H-cyclopenta[a]phenanthren-11-yl)benzyloxycarbonylamino]benzoic acid ethyl ester]
9 | 9.52 | 10.00 | C[C@]12C[C@H](c3ccc(CNC(=O)c4cccnc4)cc3)C3=C4CCC(=O)C=C4CC[C@H]3[C@@H]1CC[C@@]2(O)C(F)(F)C(F)(F)F [Example 54, N-[4-((8S,11R,13S,14S,17S)-17-hydroxy-13-methyl-3-oxo-17-pentafluoroethyl-2,3,6,7,8,11,12,13,14,15,16,17-dodecahydro-1H-cyclopenta[a]phenanthren-11-yl)benzyl]nicotinamide]
10 | 8.10 | 8.00 | C[C@]12C[C@H](c3ccc(COC(=O)NCCC(=O)O)cc3)C3=C4CCC(=O)C=C4CC[C@H]3[C@@H]1CC[C@@]2(O)C(F)(F)C(F)(F)F [Example 55, 3-[4-((8S,11R,13S,14S,17S)-17-hydroxy-13-methyl-3-oxo-17-pentafluoroethyl-2,3,6,7,8,11,12,13,14,15,16,17-dodecahydro-1H-cyclopenta[a]phenanthren-11-yl)benzyloxycarbonylamino]propionic acid]
11 | 9.70 | 9.52 | C[C@]12C[C@H](c3ccc(COC(=O)NCc4ccccc4)cc3)C3=C4CCC(=O)C=C4CC[C@H]3[C@@H]1CC[C@@]2(O)C(F)(F)C(F)(F)F [Example 56, benzylcarbamic acid 4-((8S,11R,13S,14S,17S)-17-hydroxy-13-methyl-3-oxo-17-pentafluoroethyl-2,3,6,7,8,11,12,13,14,15,16,17-dodecahydro-1H-cyclopenta[a]phenanthren-11-yl)benzyl ester]
12 | 10.00 | 10.00 | CCOC(=O)CCNC(=O)OCc1ccc([C@H]2C[C@@]3(C)[C@@H](CC[C@@]3(O)C(F)(F)C(F)(F)F)[C@@H]3CCC4=CC(=O)CCC4=C32)cc1 [Example 57, 3-[4-((8S,11R,13S,14S,17S)-17-hydroxy-13-methyl-3-oxo-17-pentafluoroethyl-2,3,6,7,8,11,12,13,14,15,16,17-dodecahydro-1H-cyclopenta[a]phenanthren-11-yl)benzyloxycarbonylamino]propionic acid ethyl ester]
